Reference: paper PMC4643876, “Picomolar Inhibition of Plasmepsin V, an Essential Malaria Protease, Achieved Exploiting the Prime Region” (PLoS ONE, 2015)
Several values for one entry are separate records, joined by “and”; a condition that tells them apart may be missing. Equal entries are not always repeated.

Tests used:
[1] = molecular target: T1, Plasmepsin V (PmV) (Plasmodium falciparum, UniProt Q8I6Z5); test: PmV inhibition, fluorimetric PExEl cleavage assay; assay type: biochemical; details: for IC50: 3 μM HRPII-PExEl substrate, averages of not less than three inhibition curves, read-out: IC50
T1 construct: PmV was purified directly from parasites; made in house
Method: Saponin was added to culture to a final 0.05%; parasites were recovered via centrifugation at 4°C after 5 min of incubation on ice; parasite pellets were then washed twice in cold PBS and either immediately lysed or stored at -80°C until lysis. Parasites were lysed via three pulses of ultra-sonication of 10 sec duration, in PBS containing 0.5% Triton-X100 (TX-100). […] Quick washes of the resin were performed either in batches, or over columns, to remove unbound cellular material (four with ice-cold 0.5% TX-100 in PBS and a final one with cold PBS). Resin-bound PmV was stored in PBS at 4°C and used within 2–3 weeks, larger batches had Glycerol added to them, up to 10%, and were stored at -20°C for up to 5 months. […] Quality and purity of PmV batches were routinely confirmed by protein electrophoresis. Quantification of PmV was performed via densitometry analysis of stained protein SDS-PAGE gels relative to BSA standard curves.
PExEl cleavage activity was monitored by fluorimetric measurement of PExEl cleavage, as previously reported. […] PmV activity was performed at 37°C in 50 mM Tris-Maleate, pH 6.5, 50 mM NaCl, 0.05% TX-100, 2 mM DTT. Assays were routinely conducted in triplicate. Bead-bound enzyme was added to the reaction using ‘end-cut’ micropipette tips in order to facilitate sampling the suspension.
Inhibitory activities were measured in the presence of a substrate concentration of 3 μM by serial dilution of each compound in triplicates. […] Titration curves of the inhibitors were routinely composed of eleven points from 10 μM to 0.1 pM. PmV concentration was kept in the order of low picomolar (≤10 pM). […] Analysis of the half inhibitory activity (IC50) was performed by sigmoidal interpolation of the starting velocities of the hydrolytic reactions for each condition. Starting velocities were calculated on the initial linear range of the product progression curves. […] Data are presented with error bars indicating the standard deviation of three independent activity curves.

[2] = system: HRPII PExEl processing; test: HRPII PExEl processing, western blot; assay type: cell-based, Plasmodium falciparum; details: 20 μM, about 27 h, 3D7
Method: Protein analyses to detect PmV, HRPII and BiP via stained protein gels and blots, densitometry, antibody detection or HRP-conjugated Streptavidin, were conducted as previously described.
Fig 16 Inhibition results in impairment of the PExEl secretion. (A) Microscopy analysis of the distribution of the PExEl-export fluorescent probe. Live parasites expressing HRPII-GFP, used as a probe for PExEl secretion, are imaged in the presence of Hoechst nuclear staining. Bright field (grey scale), nuclei (blue channel), HRPII-GFP (green) and the merged image of the fluorescent channels are presented from left to right. (panel a) untreated culture; (b) mock DMSO-treated culture; (c-f) culture treated with 20 μM 29 solubilized in DMSO (c) mid ring, (d) late-ring, (e) early-trophozoite, (f) late-trophozoite. Bar is 2 μm. Impairment of HRPII-GFP PExEl-dependent export is observed in these representative images of live parasites and the GFP signal appears concentrated in regions of immediate proximity to the nuclei. […] (B) HRPII PExEl processing is inhibited by Compound 29. Western blot analysis of HRPII contained in parasites after saponin treatment. Arrows show the pro-form (p) and the mature (m) protein HRPII. 3D7 culture was incubated as described in Materials and Methods with 20 μM Compound 29 for about 27 h.

[3] = system: clone G6 (PmV knock-down); test: Parasite growth inhibition, clone G6 (PmV-GFP-DD, PmV knock-down); details: clone G6, absence of Shield-1
Method: (§1) Growth impairment of parasites in culture was tested as follows. Asynchronous erythrocyte cultures of Plasmodium falciparum strain 3D7 were initiated at a starting parasitemia of 0.2–0.5% in the presence of titration curves of the PmV inhibitors generated in this work. […] Cultures, live or fixed, were analyzed at day 3 and/or 4 after initiation, approximately~ 2 cell cycles of 3D7 strain. Parasitemia was measured by flow cytometry analysis of parasitized cells stained with 0.4 μg/ml Acridine Orange or 1 μM Topro 3 (Life Technology Invitrogen), using BD Fortessa or FACS Calibur instruments.
(B) Growth inhibition curves of parasites expressing different levels of PmV: 3D7 (blue dots and line), DC6 (green dots and line), G6 (PmV knock-down) (red dots and line) and #3 (Overexpressing PmV) (purple dots and line) were analysed in parallel. Growth inhibition was measured in triplicates. Dots represent actual data, lines the sigmoidal fitting obtained by non-linear regression analysis. […] Error bars show the standard deviation of the data.

[4] = system: clone DC6; test: Parasite growth inhibition, clone DC6 (PmV-GFP, native promoter)
Method: as §1
(§2) DC6 clone expresses PmV-GFP chimera under regulation of the native promoter [15]; G6 clone, the PmV-GFP-DD chimera under regulation of the native promoter (this paper) and #3 clone (episomally expressing PmV-GFP chimera under Hsp86-5', a strong and constitutive promoter) [15]. […] (B) Growth inhibition curves of parasites expressing different levels of PmV: 3D7 (blue dots and line), DC6 (green dots and line), G6 (PmV knock-down) (red dots and line) and #3 (Overexpressing PmV) (purple dots and line) were analysed in parallel. Growth inhibition was measured in triplicates. Dots represent actual data, lines the sigmoidal fitting obtained by non-linear regression analysis. […] Error bars show the standard deviation of the data.

[5] = pH 7.4
[6] = system: Plasmodium falciparum strain 3D7; test: Parasite growth inhibition by flow cytometry, strain 3D7; assay type: cell-based
[7] = system: HRPII-GFP PExEl-dependent secretion; test: In vivo inhibition of PExEl export, live microscopy of HRPII-GFP clone; assay type: cell-based, Plasmodium falciparum; details: 20 μM, 27 h, ring to trophozoite stages
Method: Parasites were imaged live or fixed. Fixation in 4% formaldehyde and 0.0075% glutaraldehyde, cell permeabilization, antibody incubation, and mounting were as previously described. Before imaging of HRPII-GFP clone, we treated with Compound 29 highly synchronized parasites at late trophozoite stage with inhibitors for 27 h, and then analyzed the distribution of the exported probe in newly invaded red blood cells. Images were acquired using a fluorescence microscope (BX51 Olympus). Live parasites were counter-stained using the nuclear dye Hoechst 33342 (Life Technologies—Molecular Probes).
Fig 16 Inhibition results in impairment of the PExEl secretion. (A) Microscopy analysis of the distribution of the PExEl-export fluorescent probe. Live parasites expressing HRPII-GFP, used as a probe for PExEl secretion, are imaged in the presence of Hoechst nuclear staining. Bright field (grey scale), nuclei (blue channel), HRPII-GFP (green) and the merged image of the fluorescent channels are presented from left to right. (panel a) untreated culture; (b) mock DMSO-treated culture; (c-f) culture treated with 20 μM 29 solubilized in DMSO (c) mid ring, (d) late-ring, (e) early-trophozoite, (f) late-trophozoite. Bar is 2 μm. […]

[8] = system: clone #3 (Overexpressing PmV); test: Parasite growth inhibition, clone #3 (overexpressing PmV-GFP)
Method: as §1, §2

[9] = system: PmV; details: different substrate at […], different buffer; ref [19], [20]; read-out: IC50, published value; cited from earlier work

T1 sequence (Q8I6Z5 whole entry): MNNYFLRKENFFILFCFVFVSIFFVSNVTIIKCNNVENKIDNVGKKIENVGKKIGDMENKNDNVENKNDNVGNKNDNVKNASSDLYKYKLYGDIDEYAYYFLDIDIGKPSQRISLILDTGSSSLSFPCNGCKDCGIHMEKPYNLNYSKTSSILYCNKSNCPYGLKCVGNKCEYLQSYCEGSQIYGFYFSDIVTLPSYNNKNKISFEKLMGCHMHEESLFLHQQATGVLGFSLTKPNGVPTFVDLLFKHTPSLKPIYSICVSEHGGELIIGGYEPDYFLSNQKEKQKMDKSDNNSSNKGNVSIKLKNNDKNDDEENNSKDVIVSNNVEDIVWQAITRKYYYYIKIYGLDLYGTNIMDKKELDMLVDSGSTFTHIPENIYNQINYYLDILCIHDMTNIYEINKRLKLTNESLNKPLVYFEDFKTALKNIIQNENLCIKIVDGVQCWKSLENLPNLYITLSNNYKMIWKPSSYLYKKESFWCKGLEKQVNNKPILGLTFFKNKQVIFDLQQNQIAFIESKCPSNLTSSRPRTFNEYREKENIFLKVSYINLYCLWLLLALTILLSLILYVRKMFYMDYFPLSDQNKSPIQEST

Row | SMILES | IC50 increase compared to Compound 13a [1] | Ki [1] | IC50 [1] | effect on natural processing of HRPII [2] | IC20 [3] | IC50 [3] | IC80 [3] | IC20 [4] | IC50 [4] | IC80 [4] | logD [5] | LD50 growth inhibition ([6]; asynchronous 3D7 cultures, about 4 days, 0.195–200 μM, flow cytometry) | IC20 ([6]; strain 3D7, parental line) | IC50 ([6]; strain 3D7, parental line) | IC80 ([6]; strain 3D7, parental line) | effect on HRPII-GFP PExEl-dependent secretion [7] | IC20 [8] | IC50 [8] | IC80 [8] | IC50 [9]
1 | CC(C)C[C@H](NC(=O)[C@@H](N)CCCCN)C(=O)N[C@@H](CC(C)C)C(O)CN[C@@H](C)C(=O)N[C@@H](CCC(=O)O)C(N)=O (mixture of isomers) [Compound 29] | 8 fold | 1.06 µM | 1.97 µM | inhibited | 7.68 µM | 12.5 µM | 20.2 µM | 12.8 µM | 18.5 µM | 27.1 µM | -5.99 | ~ 15 μM and 15.2 μM | 14 µM | 17.9 µM | 22.7 µM | impairment of HRPII-GFP PExEl-dependent secretion was observed | 25.1 µM | 27.5 µM | 30.1 µM | –
2 | CC(C)C[C@H](NC(=O)[C@@H](NC(=O)[C@H](CCCNC(=N)N)NS(=O)(=O)Cc1ccccc1)C(C)C)[C@@H](O)CC(=O)NCCc1ccccc1 [WEHI916, reference compound] | – | – | 0.0324 µM | – | – | – | – | – | – | – | – | – | – | – | – | – | – | – | – | 0.019 to 0.02 µM
